US10077243B2, “Compounds for treating disorders mediated by metabotropic glutamate receptor 5, and methods of use thereof” (Sunovion Pharmaceuticals Inc., priority 2009, dated 2018)

These molecules were tested against T1, human mGluR5 (Homo sapiens, UniProt P41594) (assay: In vitro cell-based FLIPR calcium assay for positive modulation of the activation of mGluR5 by glutamate (PAM EC50)). Conditions: HEK293/GLAST cells expressing recombinant human mGluR5; FLIPR calcium signal; glutamate added at its EC20; read-out: mGluR5 PAM EC50.
T1 construct: expressed in transfected cells; host or cells: HEK293 cells stably expressing rat GLAST (EAAT1), stably transfected with pcDNAzeo3.1 carrying synthetic human mGluR5 DNA; zeocin-selected single clones
Description: The DNA sequences encoding the structural regions for rat mGluR5 [Abe T, Sugihara H, Nawa H, Shigemoto R, Mizuno N, Nakanishi S (1992) “Molecular characterization of a novel metabotropic glutamate receptor mGluR5 coupled to inositol phosphate/Ca^2+ signal transduction” Journal of Biological Chemistry vol. 267, no. 19, pp. 13361-8] and human mGluR5 [Daggett L P, Sacaan A I, Akong M, Rao S P, Hess S D, Liaw C, Urrutia A, Jachec C, Ellis S B, Dreessen J, Knöpfel T, Landwehrmeyer G B, Testa C M, Young A B, Varney M, Johnson E C, Veliçelebi (1995) “Molecular and functional characterization of recombinant human metabotropic glutamate receptor subtype 5” Neuropharmacology vol. 34, no. […] 53, no. 3, pp. 355-369] was obtained from Dr. Michael Robinson of the Children's Hospital of Philadelphia under a Material Transfer Agreement. The pcDNAzeo3.1 vector DNA, carrying either rat mGluR5 or human mGluR5, was used to transfect a sample of the HEK293/GLAST cells, and single clones that express mGluR5 were isolated from the transfected cells using zeocin selection. Expression of mGluR5 was assessed by measurement of the transient fluorescence signal elicited from HEK293/GLAST/mGluR5 cells by glutamate following the loading of the cells with a calcium-sensitive dye using a FLIPR Tetra (Fluorometric Imaging Plate Reader) (Molecular Devices, Sunnyvale, Calif.) [O'Brien J A, Lemaire W, Chen T B, Chang R S, Jacobson M A, Ha S N, Lindsley C W, Schaffhauser H J, Sur C, Pettibone D J, Conn P J, Williams D L Jr. […] 64, no. 3, pp. 731-740; Assay Guidance Manual Version 5.0, 2008, Eli Lilly and Company and NIH Chemical Genomics Center; available online HEK293/GLAST/mGluR5 cells were grown in Dulbecco's Modified Eagle Medium (DMEM) supplemented with 10% dialyzed fetal bovine serum, 20 millimolar (mM) N-2-hydroxyethylpiperazine-N′-2-ethanesulfonic acid (HEPES), penicillin, streptomycin, 1% GlutaMax™ (Invitrogen) and 50 μg/ml zeocin. Cells were grown in the media to 70-80% confluency at 37° C. under 5% CO2, 95% humidity in poly-D-lysine coated coated flasks. Cells for assays were plated into 96-well sterile standard microtiter plates (pre-coated with poly-D-lysine) at a density of 50,000 cells per well in 0.2 milliliters of media. Plated cells were allowed to settle and adhere for 30 minutes at ambient conditions, and then were incubated overnight at 37° C. under 5% CO2, 95% humidity. Several such 96-well plates were typically prepared. On the day of the assays, the components of the FLIPR calcium 4 assay kit (Molecular Devices) were dissolved according to the instructions of the dye kit's manufacturer in assay buffer (Hank's balanced salt solution (HBSS) (Gibco) supplemented with 20 mM HEPES). After removal of the growth media from the first plate, cells were loaded with calcium dye by addition of calcium dye solution (50 microliters per well) and incubation at 25° C. for 45 to 60 minutes. The first plate was placed into the FLIPR Tetra, and a dilution series of glutamate solutions in assay buffer were added to wells on the plate, followed by acquisition of fluorescence data for several minutes. The fluorescence data (maximal signal as a 4-parameter sigmoidal function of log [glutamate]) were processed by non-linear regression methods using the software package GraphPad Prism 5.01 (GraphPad Software Inc.), to yield a glutamate concentration-response curve (CRC). […] These values were, respectively, the concentrations of glutamate that elicit 20%, 50%, and 80% of the maximal FLIPR signal (observed at saturating [glutamate]). The method for measuring the concentration response of a potentiator, or positive allosteric modulator (PAM), is described here as an example. For that purpose, subsequent assays were typically performed using assay buffer containing a glutamate concentration equal to that day's EC20. […] Addition to certain wells of the same buffer containing 0.3% DMSO, but without any test compound, provided a negative control.

T1 sequence (P41594 21-1212): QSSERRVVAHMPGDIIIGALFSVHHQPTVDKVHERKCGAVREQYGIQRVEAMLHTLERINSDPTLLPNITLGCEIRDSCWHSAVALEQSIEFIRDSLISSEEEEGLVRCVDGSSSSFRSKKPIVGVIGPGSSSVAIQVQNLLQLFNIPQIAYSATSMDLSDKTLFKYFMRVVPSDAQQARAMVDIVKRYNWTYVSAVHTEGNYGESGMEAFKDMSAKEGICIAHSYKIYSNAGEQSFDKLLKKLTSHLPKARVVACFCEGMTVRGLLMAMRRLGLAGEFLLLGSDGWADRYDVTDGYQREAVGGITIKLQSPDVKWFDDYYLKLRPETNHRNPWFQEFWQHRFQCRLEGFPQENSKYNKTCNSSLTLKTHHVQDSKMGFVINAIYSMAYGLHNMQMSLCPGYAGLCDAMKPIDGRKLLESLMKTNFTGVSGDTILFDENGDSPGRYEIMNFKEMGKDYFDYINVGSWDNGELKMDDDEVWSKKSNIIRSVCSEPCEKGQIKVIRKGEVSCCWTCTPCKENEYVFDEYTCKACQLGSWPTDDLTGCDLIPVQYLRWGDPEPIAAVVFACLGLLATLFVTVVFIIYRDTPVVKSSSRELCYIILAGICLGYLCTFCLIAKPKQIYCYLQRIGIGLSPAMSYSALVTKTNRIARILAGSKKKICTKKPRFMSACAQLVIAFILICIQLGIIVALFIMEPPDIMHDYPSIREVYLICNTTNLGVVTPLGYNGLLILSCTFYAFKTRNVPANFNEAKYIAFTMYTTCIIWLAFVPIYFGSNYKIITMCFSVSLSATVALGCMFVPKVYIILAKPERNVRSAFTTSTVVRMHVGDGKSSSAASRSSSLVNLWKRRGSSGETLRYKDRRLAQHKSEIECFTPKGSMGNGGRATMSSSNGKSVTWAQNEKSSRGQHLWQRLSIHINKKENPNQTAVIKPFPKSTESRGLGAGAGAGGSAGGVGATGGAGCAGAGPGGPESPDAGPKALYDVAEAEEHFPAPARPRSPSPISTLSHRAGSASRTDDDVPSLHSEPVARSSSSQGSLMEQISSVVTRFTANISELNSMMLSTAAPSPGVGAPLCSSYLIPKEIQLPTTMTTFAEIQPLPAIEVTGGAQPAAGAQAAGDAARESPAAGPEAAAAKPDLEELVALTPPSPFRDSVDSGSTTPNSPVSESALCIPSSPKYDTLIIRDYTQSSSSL

Row | EC50 [nM] | Compound
1 | 100 to 300 | CN1CCc2nc3cc(C#Cc4ccc(F)cc4)ccc3c(=O)n2CC1 [Example 8.1, 8-((4-fluorophenyl)ethynyl)-3-methyl-2,3,4,5-tetrahydro-[1,4]diazepino[7,1-b]quinazolin-11(1H)-one]
2 | 100 to 300 | CC(C)CC1CCCCc2nc3cc(C#Cc4ccc(F)cc4)ccc3c(=O)n21 (stereo not shown) [Example 6.32, 3-((4-fluorophenyl)ethynyl)-10-isobutyl-7,8,9,10-tetrahydroazepino[2,1-b]quinazolin-12(6H)-one]
3 | 300 to 1000 | O=c1c2ccc(C#Cc3cccnc3)cc2nc2n1CCC1(CC2)OCCO1 [Example 7.11]
4 | 300 to 1000 | O=c1c2ccc(C#CC3CCCCC3)cc2nc2n1CCC1(CC2)OCCO1 [Example 7.54]
5 | 100 to 300 | CN1CCn2c(nc3cc(C#Cc4ccccn4)ccc3c2=O)C1 [Example 5.5, 2-methyl-9-(pyridin-2-ylethynyl)-3,4-dihydro-1H-pyrazino[2,1-b]quinazolin-6(2H)-one]
6 | 30 to 100 | Fc1ccc(C#Cc2ccc3c(c2)N=C2CCCCCN2C3)cc1 [Example 19.1, 3-((4-fluorophenyl)ethynyl)-6,7,8,9,10,12-hexahydroazepino[2,1-b]quinazoline]
7 | 300 to 1000 | O=c1c2ccc(C#Cc3cscn3)cc2nc2n1CCC1(CC2)OCCO1 [Example 7.62]
8 | 100 to 300 | CCC(C)N1CCn2c(nc3cc(C#Cc4cccc(F)c4)ccc3c2=O)C1 (stereo not shown) [Example 5.6, 2-(sec-butyl)-9-((3-fluorophenyl)ethynyl)-3,4-dihydro-1H-pyrazino[2,1-b]quinazolin-6(2H)-one]
9 | 30 to 100 | O=CN1CCc2nc3cc(C#Cc4cccc(F)c4)ccc3c(=O)n2CC1 [Example 8.18, 8-((3-fluorophenyl)ethynyl)-11-oxo-1,2,4,5-tetrahydro-[1,4]diazepino[7,1-b]quinazoline-3(11H)-carbaldehyde]
10 | < 10 | C/C=C1\CCCCCn2c1nc1cc(C(=O)Nc3ncc(C)s3)ccc1c2=O [Example 25.1, (E)-6-ethylidene-N-(5-methylthiazol-2-yl)-13-oxo-7,8,9,10,11,13-hexahydro-6H-azocino[2,1-b]quinazoline-3-carboxamide]
11 | < 10 | CC1(F)CCc2nc3cc(C#Cc4ccccn4)ccc3c(=O)n2CC1 (stereo not shown) [Example 6.48, 8-fluoro-8-methyl-3-(pyridin-2-ylethynyl)-7,8,9,10-tetrahydroazepino[2,1-b]quinazolin-12(6H)-one]
12 | < 10 | CC1CCc2nc3cc(C#Cc4ccc(F)cc4)ccc3c(=O)n2CC1 (stereo not shown) [Example 6.6, 3-((4-fluorophenyl)ethynyl)-8-methyl-7,8,9,10-tetrahydroazepino[2,1-b]quinazolin-12(6H)-one]
13 | < 10 | O=c1c2c(nc3cc(C#Cc4ccccn4)ccn13)CCCCCC2 [Example 17.2, 3-(pyridin-2-ylethynyl)-8,9,10,11-tetrahydro-6H-cycloocta[d]pyrido[1,2-a]pyrimidin-12(7H)-one]
14 | 30 to 100 | O=c1c2ccc(C#Cc3cccnc3)cc2nc2n1CC1CCCN1C2 (stereo not shown) [Example 5.24, 8-(pyridin-3-ylethynyl)-2,3,13,13a-tetrahydro-1H-pyrrolo[1′,2′:4,5]pyrazino[2,1-b]quinazolin-11(5H)-one]
15 | 100 to 300 | Cc1cnc(NC(=O)c2ccc3c(=O)n4c(nc3c2)CCC(C)CC4)s1 (stereo not shown) [Example 23.1, 8-methyl-N-(5-methylthiazol-2-yl)-12-oxo-6,7,8,9,10,12-hexahydroazepino[2,1-b]quinazoline-3-carboxamide]
16 | 30 to 100 | O=c1c2ccc(C#Cc3ccccn3)cc2nc2n1CCC1(CC2)OCCO1 [Example 7.10]
17 | 100 to 300 | CCN1CCc2nc3cc(C#Cc4ccc(F)cc4)ccc3c(=O)n2CC1 [Example 8.2, 3-ethyl-8-((4-fluorophenyl)ethynyl)-2,3,4,5-tetrahydro-[1,4]diazepino[7,1-b]quinazolin-11(1H)-one]

Second part, the molecule before the results:

Row | Compound | EC50 [nM]
18 | O=c1c2ccc(C#Cc3cccc(F)c3)cc2ncn1C1CCCC1 [Example 1.11, 3-cyclopentyl-7-((3-fluorophenyl)ethynyl)quinazolin-4(3H)-one] | 10 to 30
19 | O=C1CCc2nc3cc(C#Cc4cccc(F)c4)ccc3c(=O)n2C1 [Example 4.22, 3-((3-fluorophenyl)ethynyl)-6H-pyrido[2,1-b]quinazoline-8,11(7H,9H)-dione] | 30 to 100
20 | CC1Cc2nc3cc(C#Cc4ccccn4)ccc3c(=O)n2C1 (stereo not shown) [Example 3.11, 2-methyl-6-(pyridin-2-ylethynyl)-2,3-dihydropyrrolo[2,1-b]quinazolin-9(1H)-one] | 10 to 30
21 | O=c1c2c(nc3cc(C#Cc4ccc(F)cc4)ccn13)CCCCCC2 [Example 17.5, 3-((4-fluorophenyl)ethynyl)-8,9,10,11-tetrahydro-6H-cycloocta[d]pyrido[1,2-a]pyrimidin-12(7H)-one] | < 10
22 | COCCc1nc2cc(C#Cc3cccc(F)c3)ccc2c(=O)[nH]1 [Example 2.13, 7-((3-fluorophenyl)ethynyl)-2-(2-methoxyethyl)quinazolin-4(3H)-one] | 100 to 300
23 | CC1Cc2nc3cc(C#Cc4ccccn4)ccc3c(=O)n2C1 (single isomer, unassigned) [3.12/3.13 faster moving enantiomer (fraction 1), 2-methyl-6-(pyridin-2-ylethynyl)-2,3-dihydropyrrolo[2,1-b]quinazolin-9(1H)-one] | 30 to 100
24 | O=c1c2ccc(C#Cc3ccccn3)cc2nc2n1CC1CCCN1CC2 (single isomer, unassigned) [Example 9.4a/9.4b faster moving enantiomer (fraction 1), 9-(pyridin-2-ylethynyl)-2,3,5,6,14,14a-hexahydropyrrolo[2′,1′:3,4][1,4]diazepino[7,1-b]quinazolin-12(1H)-one] | 30 to 100
25 | O=c1[nH]cnc2cc(C#Cc3cccc(F)c3)ccc12 [Example 1.2, 7-((3-fluorophenyl)ethynyl)quinazolin-4(3H)-one] | 300 to 1000
26 | Cn1c(C2CCCO2)nc2cc(C#Cc3cccc(F)c3)ccc2c1=O (stereo not shown) [Example 2.3, 7-((3-fluorophenyl)ethynyl)-3-methyl-2-(tetrahydrofuran-2-yl)quinazolin-4(3H)-one] | 300 to 1000
27 | COCCn1cnc2cc(C#Cc3ccc(F)cc3)ccc2c1=O [Example 1.12, 7-((4-fluorophenyl)ethynyl)-3-(2-methoxyethyl)quinazolin-4(3H)-one] | 30 to 100
28 | COCc1nc2cc(C#Cc3cccc(F)c3)ccc2c(=O)n1C [Example 2.18, 7-((3-fluorophenyl)ethynyl)-2-(methoxymethyl)-3-methylquinazolin-4(3H)-one] | 10 to 30
29 | O=c1c2ccc(C#Cc3ccc(F)cc3)cc2ncn1CC1CCCO1 (single isomer, unassigned) [1.15/1.16 slower moving enantiomer (fraction 2), 7-((4-fluorophenyl)ethynyl)-3-((tetrahydrofuran-2-yl)methyl)quinazolin-4(3H)-one] | 100 to 300
30 | O=c1c2ccc(C#Cc3ccccn3)cc2nc2n1CC(F)(F)CC2 [Example 4.42, 8,8-difluoro-3-(pyridin-2-ylethynyl)-8,9-dihydro-6H-pyrido[2,1-b]quinazolin-11(7H)-one] | 10 to 30
31 | COCC1CCc2nc3cc(C#Cc4cccc(F)c4)ccc3c(=O)n2C1 (stereo not shown) [Example 4.33, 3-((3-fluorophenyl)ethynyl)-8-(methoxymethyl)-8,9-dihydro-6H-pyrido[2,1-b]quinazolin-11(7H)-one] | < 10
